One test concerns Escherichia coli. In words: microbe, parasite or virus in culture. In kind it is cell-based. Conditions: Escherichia coli; for MIC: read-out: MIC. The source says: (§1) Bacterial isolates of Escherichia coli, Klebsiella pneumonia, Serratia marcescens, Pseudomonas aeruginosa, Enterobacter cloacae, and Enterobacter aerogenes, which were obtained from clinical cases of bovine mastitis, were used to assess the bactericidal activity of peptides in a broth microdilution assay. Isolates were obtained from repositories at Cornell University (gift of Dr. Y. H. Schukken; Quality Milk Production Services Program, Cornell University, Ithaca N.Y.) and the USDA Beltsville Agricultural Research Center. […] A. J. Bramley, Institute for Animal Health, Compton Laboratory, Newbury, England), which was originally isolated from a clinical case of mastitis ([…]. Dairy Res. 43: 205-211) was also used to assess the bactericidal activity of the peptides in biological fluids. Reference strains of E. coli (ATCC 25922) and Staphylococcus aureus (ATCC 29213) were obtained from a commercial source (American Type Culture Collection (ATCC), Manassas, Va.). To obtain fresh inoculums for evaluation, a sterile loop of each bacterial glycerol stock was streaked on a blood agar plate. After an overnight incubation at 35° C., a single uniform colony was picked and sub-passaged by streaking on a new blood agar plate and incubating the plate overnight at 35° C. To evaluate the antimicrobial activity of the peptides against various clinical mastitis bacterial isolates, the minimum inhibitory concentration (MIC) and the minimum bactericidal concentration (MBC) of these peptides against the isolates were determined using a standardized broth microdilution assay. In addition to the mastitis isolates, E. coli (ATCC 25922) and S. aureus (ATCC 29213) reference strains were evaluated. […] The assays were performed in accordance with Clinical and Laboratory Standards Institute (CLSI) [formerly National Committee for Clinical Laboratory Standards (NCCLS)] guidelines (National Committee for Clinical Laboratory Standards. 1999. Methods for Determining Bacterial Activity of Antimicrobial Agents: Approved Guideline. Wayne, Pa.; National Committee for Clinical Laboratory Standards. 2002. Performance Standards for Antimicrobial Disk and Dilution Susceptibility Tests for Bacteria Isolated from Animals: Approved Standard. 2nd Edition, Wayne, Pa.). […] The bacterial suspension was then diluted 100-fold in cation-adjusted Mueller-Hinton broth to reach a final inoculum concentration of 10^6 CFU/ml. […] A negative control column was included in the plate that included 100 μl of broth alone. The plates were incubated for 18 h at 35° C. with ambient air circulation and without shaking. The wells were subsequently inspected for cloudiness and pellet formation using a magnifying glass plate reader. The lowest concentration at which no pellet or cloudiness was apparent in a given well was identified as the MIC. […] The plates were incubated overnight at 35° C. and colonies subsequently enumerated. The MBC values were determined as the lowest concentration at which ≧99.9% of inoculated bacteria were killed. All assays were performed in triplicate and the MIC and MBC range reported.

The subject of another test is Staphylococcus aureus. In words: microbe, parasite or virus in culture. In kind it is cell-based. The following applies: ATCC29213; Staphylococcus aureus ATCC 29213; read-out: MIC.
Text: as §1

The test system of a further test is Klebsiella pneumoniae. In words: microbe, parasite or virus in culture. The format is cell-based. The following applies: Klebsiella pneumoniae, read-out: MIC.
Text: as §1

Another test has as its system Serratia marcescens. In words: microbe, parasite or virus in culture. In kind it is cell-based. The following applies: Serratia marcescens, read-out: MIC.
Text: as §1

In the next test the test system is Pseudomonas aeruginosa. The test can be described thus: microbe, parasite or virus in culture. In kind it is cell-based. Conditions: Pseudomonas aeruginosa, read-out: MIC.
Text: as §1

Another test has as its system Enterobacter cloacae. The test can be described thus: microbe, parasite or virus in culture. In kind it is cell-based.
Text: as §1

The subject of test [1] is bacterial LPS derived from E. coli 0111:B4. In words: LPS neutralization, Limulus amebocyte lysate (LAL) assay. The format is biochemical. Conditions: 1 ng LPS. As for the experimental part:
FIG. 1 depicts the mean (±S.E.) percent neutralization of bacterial LPS bioactivity as determined with the Limulus amebocyte lysate assay. Increasing concentrations of peptides or polymixin B were incubated with 1 ng of E. coli-derived LPS for 30 min. Following incubation, the amount of free LPS was determined by extrapolation from a standard curve and the percent of bound (neutralized) LPS was calculated.
The ability of the peptides to neutralize LPS was determined using a commercially available Limulus amebocyte lysate (LAL) assay (Cambrex BioScience Walkersville, Inc., Walkersville, Md.). As a positive control, polymyxin B (Sigma Chemical Co.) was evaluated in parallel with the peptides. Increasing concentrations of peptides or polymyxin B were incubated with 1 ng of highly purified bacterial LPS (Sigma Chemical Co.), derived from E. coli 0111:B4, in a 500 μl reaction volume of endotoxin-free water for 30 min at 37° C. while shaking at 100 rpm. Following the incubation, the amount of free LPS was determined in each sample according to the manufacturer's instructions. Briefly, 50 μl of the above mixture was placed into a 96-well microtiter plate and the reaction initiated by the addition of an equal volume of amoebocyte lysate. Following an incubation at 37° C. for 10 min, 100 μl of chromogenic substrate was added and the plate incubated for 5-10 min at 37° C. The reaction was stopped by the addition of 50 μl of glacial acetic acid and the absorbance measured at a wavelength of 405 nm on a microplate reader (Biotec Instruments, Inc., Winooski, Vt.). The amount of non-bound LPS was extrapolated from a standard curve and the percent inhibition calculated according to the following formula: […]
To determine whether the bBPI peptides were able to neutralize LPS, increasing concentrations of the peptides were incubated with LPS (1 ng) and the resulting mixture assayed with the LAL assay (FIG. 1). As a positive and negative control, respectively, polymyxin B and a non-BPI-derived peptide were also assayed. […] In contrast, bBPI142-169 and bBPI90-99,148-161 were able to neutralize ≧93% of LPS activity at peptide concentrations of 30 and 100 μg/ml, respectively.

The text below walks through data of patent publication US20090048160A1, “Antimicrobial activity of bovine bactericidal/permeability-increasing protein (BPI)-derived peptides against Gram-negative bacterial mastitis isolates” (priority 2007, published 2009).

≈ marks a conversion by molar mass, not a printed value. Read-outs that look alike come from different tables or passages of the source.

Take `CN(C)[C@@H]1C(O)=C(C(N)=O)C(=O)[C@@]2(O)C(O)=C3C(=O)c4c(O)cccc4[C@@](C)(O)[C@H]3C[C@@H]12` [Tetracycline, reference compound]: the MBC in the test on Escherichia coli (ATCC25922, Escherichia coli ATCC 25922, read-out: MBC) came out at 64 µg/mL (≈ 144 µM). Besides, the MIC in the test with Escherichia coli (ATCC25922, Escherichia coli ATCC 25922) was 0.5 to 1 µg/mL (≈ 1.13 to 2.25 µM); in the test with Escherichia coli (Escherichia coli Isolate #1), 4 µg/mL (≈ 9 µM); in the test on Escherichia coli (Escherichia coli Isolate #2), 4 µg/mL (≈ 9 µM); with Escherichia coli (Escherichia coli Isolate #3) it was 4 µg/mL (≈ 9 µM); in the test with Escherichia coli (Escherichia coli Isolate #4), 4 µg/mL (≈ 9 µM); in the test with Escherichia coli (Escherichia coli Isolate #5), 4 µg/mL (≈ 9 µM). The MIC with Escherichia coli (Escherichia coli Strain P4) was 1 µg/mL (≈ 2.25 µM); in the test on Staphylococcus aureus it was 0.25 to 0.5 µg/mL (≈ 0.563 to 1.13 µM); with Klebsiella pneumoniae (Klebsiella pneumoniae Isolate #1) it was 64 µg/mL (≈ 144 µM); in the test with Klebsiella pneumoniae (Klebsiella pneumoniae Isolate #3) it was 1 µg/mL (≈ 2.25 µM); with Klebsiella pneumoniae (Klebsiella pneumoniae Isolate #4), 64 µg/mL (≈ 144 µM); in the test on Klebsiella pneumoniae (Klebsiella pneumoniae Isolate #5), 16 µg/mL (≈ 36 µM). Further, the MIC amounted to 0.5 µg/mL (≈ 1.13 µM) with Klebsiella pneumoniae (Klebsiella pneumoniae Isolate #6); 32 µg/mL (≈ 72 µM) with Serratia marcescens (Serratia marcescens Isolate #1); 64 µg/mL (≈ 144 µM) in the test on Serratia marcescens (Serratia marcescens Isolate #2); 64 µg/mL (≈ 144 µM) with Serratia marcescens (Serratia marcescens Isolate #3); 64 µg/mL (≈ 144 µM) in the test with Serratia marcescens (Serratia marcescens Isolate #4); 64 µg/mL (≈ 144 µM) in the test on Serratia marcescens (Serratia marcescens Isolate #5). Also, the MIC in the test on Serratia marcescens (Serratia marcescens Isolate #6) worked out at 64 µg/mL (≈ 144 µM); in the test on Pseudomonas aeruginosa (Pseudomonas aeruginosa Isolate #1), 32 µg/mL (≈ 72 µM); with Pseudomonas aeruginosa (Pseudomonas aeruginosa Isolate #2), 16 µg/mL (≈ 36 µM); with Pseudomonas aeruginosa (Pseudomonas aeruginosa Isolate #3) it was 32 µg/mL (≈ 72 µM); in the test on Pseudomonas aeruginosa (Pseudomonas aeruginosa Isolate #4) it was 16 µg/mL (≈ 36 µM); in the test with Pseudomonas aeruginosa (Pseudomonas aeruginosa Isolate #5) it was 32 µg/mL (≈ 72 µM). The MIC in the test with Pseudomonas aeruginosa (Pseudomonas aeruginosa Isolate #6) is 16 µg/mL (≈ 36 µM); with Enterobacter cloacae (Enterobacter cloacae Isolate #2, read-out: MIC), 4 µg/mL (≈ 9 µM); against Enterobacter cloacae (Enterobacter cloacae Isolate #4), 4 µg/mL (≈ 9 µM).
For polymyxin B [reference compound], the “inhibition of LPS activity (in words)” value in test [1] (increasing concentrations) is “inhibited LPS activity in dose-dependent manner”.
Regarding “MCHWAGGASNTGDARGDV FGKQAG (MCHWAGGASNTGDARGDVFGKQAG; listed as Bos sp.) [control peptide, non-BPI-derived control peptide provided by the peptide synthesis company; negative control, reference compound]”, the “inhibition of LPS activity” value in test [1] (100 μg/ml, 30 min) was “no inhibitory effect”.
